According to ChEMBL document CHEMBL1144219, “Synthesis of new 4-[2-(4-methyl(amino)sulfonylphenyl)-5-trifluoromethyl-2H-pyrazol-3-yl]-1,2,3,6-tetrahydropyridines: a search for novel nitric oxide donor anti-inflammatory agents” (2008):
Activity calls are given as the source filed them. The rule behind the calls is not given here.

What was measured:
Rattus norvegicus [1] = experiment: Antiinflammatory activity against carrageenan-induced rat foot paw edema model at 100 mg/kg, po; assay type: functional
Rattus norvegicus [2] = experiment: Antiinflammatory activity against po dosed carrageenan-induced rat foot paw edema model; assay type: functional

NS(=O)(=O)c1ccc(-n2nc(C(F)(F)F)cc2C2=CCNCC2)cc1 was tested, and the inhibition in vivo at 100 mg/kg (Rattus norvegicus [1]) was 7.1%.
With CCOC(=O)N1CC=C(c2cc(C(F)(F)F)nn2-c2ccc(S(C)(=O)=O)cc2)CC1 the inhibition in vivo at 100 mg/kg (Rattus norvegicus [1]) was 24.1%.
For CN1CC=C(c2cc(C(F)(F)F)nn2-c2ccc(S(N)(=O)=O)cc2)CC1, the ED50 (Rattus norvegicus [2]) was 61.2 mg/kg.
With CN1CC=C(c2cc(C(F)(F)F)nn2-c2ccc(S(C)(=O)=O)cc2)CC1 the ED50 (Rattus norvegicus [2]) was 95.3 mg/kg.
CC(=O)Oc1ccccc1C(=O)O [ASPIRIN] was tested, and the ED50 (Rattus norvegicus [2]) was 129 mg/kg.
For CCOC(=O)N1CC=C(c2cc(C(F)(F)F)nn2-c2ccc(S(N)(=O)=O)cc2)CC1, the Activity (Rattus norvegicus [1]) was “inactive”.
Compound CS(=O)(=O)c1ccc(-n2nc(C(F)(F)F)cc2C2=CCN(N=O)CC2)cc1 has an ED50 (Rattus norvegicus [2]) of 115 mg/kg.
Compound CS(=O)(=O)c1ccc(-n2nc(C(F)(F)F)cc2C2=CCNCC2)cc1 has an ED50 (Rattus norvegicus [2]) of 129 mg/kg.
